Experiment [1] has as its target T1, PcGSTd1 (Panonychus citri, UniProt H9BTE1).
T1 construct: full ORF in pET-28a (BamHI/NotI), His-tag kept (Ni-NTA), E. coli TransBL21(DE3); EC 2.5.1.18
T1 sequence (H9BTE1 1-217): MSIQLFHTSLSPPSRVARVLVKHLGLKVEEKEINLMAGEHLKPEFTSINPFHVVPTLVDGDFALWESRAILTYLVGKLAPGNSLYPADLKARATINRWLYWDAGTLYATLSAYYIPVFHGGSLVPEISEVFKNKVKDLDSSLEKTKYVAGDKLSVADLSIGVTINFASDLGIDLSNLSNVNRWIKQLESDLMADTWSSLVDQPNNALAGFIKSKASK
Nature of the experiment: CDNB-GSH conjugation, absorbance […] nm, Lineweaver-Burk. The class given is biochemical. The note with it: co-substrate GSH; 28 C.

Experiment [2] addresses T1, PcGSTd1. Nature of the experiment: CDNB-GSH conjugation, absorbance […] nm. The class given is biochemical. The note with it: 0.6 mM CDNB, 5 mM GSH, 0.05 M Tris-HCl pH 7.5; ECA 0.05-2 mM.

`O=[N+]([O-])c1ccc(Cl)c([N+](=O)[O-])c1` [1-chloro-2,4-dinitrobenzene]: the Km at PcGSTd1 [1] turned out to be 1820 ± 490 µM. On to `C=C(CC)C(=O)c1ccc(OCC(=O)O)c(Cl)c1Cl` [ethacrynic acid], for which the half-maximal inhibitory concentration (IC50) at PcGSTd1 [2] worked out at 1.13 ± 0.12 mM.

The values above are taken from publication PMC5884870, “Antioxidant Role of PcGSTd1 in Fenpropathrin Resistant Population of the Citrus Red Mite, Panonychus citri (McGregor)” (Frontiers in Physiology, 2018).
